Data from patent publication US20220105127A1, “METHODS FOR PROVIDING THE BENEFITS OF METHIONINE RESTRICTION WITHOUT DIETARY RESTRICTION” (priority 2020, published 2022).

Columns and labels:
Format in all cases: in vivo, mouse
C57BL/6J mice [1] = assay: Experiment 1: high-fat diet with selenium compounds, body mass, fat pad and liver mass; conditions: for Inguinal Fat Mass, Females / Perigonadal Fat Mass, Females / Total Body Mass, Females: female mice; for Inguinal Fat Mass, Females / Perigonadal Fat Mass, Females / Total Body Mass, Females / Inguinal Fat Mass, Males / Perigonadal Fat Mass, Males / Total Body Mass, Males: untreated = 100%, sodium selenite 0.0073% of food, selenomethionine 0.0036% or 0.0073% (which not stated); for Total Body Mass, Females / Total Body Mass, Males: 16 weeks
Protocol: (§1) All animal studies conducted were approved by the Institutional Animal Care and Use Committee (IACUC) of the Orentreich Foundation for the Advancement of Science, Inc. (Permit Number: 0511 MB). C57BL/6J mice (stock number 000664) were purchased from the Jackson Laboratories (Bar Harbor, Me.) and housed in a conventional animal facility maintained at 20±2° C., 50±10% relative humidity, with a 12 hr/12 hr light/dark photoperiod. Food and water were provided ad libitum. Upon arrival, mice were acclimatized for up to one week and fed Purina Lab Chow 5001 (Ralston Purina, Co.; St. Louis, Mo.).
At the beginning of the experiment, the mice were divided into 5 groups with each group being fed one of five isocaloric (5.3 kcal/gm) high-fat diets ad libitum for several weeks. Each high-fat diet comprising a base of 12% kcal protein, 31% kcal carbohydrate, and 57% kcal fat. The first group's diet was the control-fed diet and included the base and methionine in an amount that represented about 0.86% of the weight of the food (sometimes referred to as “control group,” “control-fed group,” or “group 1”). The second group's diet was the methionine-restricted group where the base-diet was restricted to 0.12% methionine as a percentage of the total weight of the food (sometimes referred to as “methionine-restricted group” or “group 2”). The third group was fed the base diet containing 0.86% methionine, which was supplemented with sodium selenite in an amount representing 0.0073% of the total weight of the food (sometimes referred to as “sodium selenite-supplemented group” or “group 3”). The fourth group was fed the base diet containing 0.86% methionine, supplemented with 0.0036% selenomethionine, as a percentage of the total food weight (sometimes referred to as “group 4”). The fifth group was fed the base diet containing 0.86% methionine as a percentage of the total weight of the food, supplemented with 0.0073% selenomethionine as a percentage of the total weight of the food (sometimes referred to as “group 5”). Amounts of selenium-containing compounds used for this and subsequent experiments were determined from pilot studies aimed at identifying minimal doses that still achieve high efficacy. […] The amount of selenomethionine administered to the animals in the fourth and fifth groups was approximately 1/200 and 1/100 times respectively, of the levels of sulfur-containing amino acids (i.e., methionine and cysteine) present in the subjects' diets.
Body mass and food consumption were monitored once a week for sixteen weeks. Prior to blood collection, animals were fasted for 4 hours to establish a physiological baseline. Blood was then collected from the retro-orbital plexus and processed using EDTA-K2-coated blood collection tubes (Milian Dutscher Group; Geneva, Switzerland). The resulting plasma was frozen and stored at −80° C. until used for analysis. A portion of each blood sample was used for blood glucose determination using an Abbott Freestyle Lite glucometer and glucose strips (Abbott Diabetes Care, Inc.; Alameda, Calif.). At the end of each study, animals were fasted and bled, as described above. The mice were then sacrificed, their overall body condition was assessed, and certain physiological parameters were measured. The inguinal and perigonadal fat pads, as well as liver of each mouse, were harvested by surgical resection, weighed, flash frozen, and stored at −80° C.

C57BL/6J mice [2] = assay: Experiment 3: low-fat diet with selenomethionine, inguinal and perigonadal fat pad weight; conditions: male mice, selenomethionine 0.00015% of food, low-fat diet (10% of calories from fat), 8 week interval, p<0.01; even more effectively than methionine restriction
Protocol: as §1
In this experiment, male mice were divided into three groups, with each group being fed a separate low-fat diet ad libitum for 8 weeks. The first group represented the control-fed group (CF group) and was fed a low-fat base diet that included 0.86% methionine as a percentage of total food. The second group was fed a methionine-restricted diet (MR group) where the amount of methionine was restricted to 0.12% of total consumed. The third group was fed the base diet supplemented with selenomethionine (SMS group) in an amount representing 0.00015% of total food consumed.
FIGS. 9A and 9B depict the reduced white adipose tissue accumulation of the SMS group as compared with the MR group and the CF group. […]

plasma glucose = assay: Experiment 1: high-fat diet with selenium compounds, plasma glucose; conditions: untreated = 100%, sodium selenite 0.0073% of food
Protocol: as §1
(§2) At the beginning of the experiment, the mice were divided into 5 groups with each group being fed one of five isocaloric (5.3 kcal/gm) high-fat diets ad libitum for several weeks. Each high-fat diet comprising a base of 12% kcal protein, 31% kcal carbohydrate, and 57% kcal fat. […] Amounts of selenium-containing compounds used for this and subsequent experiments were determined from pilot studies aimed at identifying minimal doses that still achieve high efficacy. […]
(§3) Body mass and food consumption were monitored once a week for sixteen weeks. […] The mice were then sacrificed, their overall body condition was assessed, and certain physiological parameters were measured. […]

insulin = assay: Experiment 1: high-fat diet with selenium compounds, plasma insulin ELISA; conditions: untreated = 100%, sodium selenite 0.0073% of food
Protocol: as §1, §2, §3

IGF-1 = assay: Experiment 1: high-fat diet with selenium compounds, plasma IGF-1 ELISA; conditions: sodium selenite 0.0073% of food
Protocol: as §1
(§4) At the beginning of the experiment, the mice were divided into 5 groups with each group being fed one of five isocaloric (5.3 kcal/gm) high-fat diets ad libitum for several weeks. Each high-fat diet comprising a base of 12% kcal protein, 31% kcal carbohydrate, and 57% kcal fat. The first group's diet was the control-fed diet and included the base and methionine in an amount that represented about 0.86% of the weight of the food (sometimes referred to as “control group,” “control-fed group,” or “group 1”). […] Amounts of selenium-containing compounds used for this and subsequent experiments were determined from pilot studies aimed at identifying minimal doses that still achieve high efficacy. […]
as §3
(§5) Enzyme-linked immunosorbent assay (ELISA) kits were obtained commercially and used to measure plasma levels of IGF-1 (R&D Systems; Minneapolis, Minn.), adiponectin (R&D Systems), FGF-21 (Millipore Corp.; Billerica, Mass.), leptin (R&D Systems), growth hormone (Millipore Corp.), and insulin (ALPCO Diagnostics; Salem, N.H.). Tests were performed according to the manufacturers' recommendations and measured using a Molecular Devices SpectraMax M5 Microplate Reader (Molecular Devices LLC; San Jose, Calif.). […]

leptin = assay: Experiment 1: high-fat diet with selenium compounds, plasma leptin ELISA
Protocol: as §1, §4, §3, §5

adiponectin = assay: Experiment 1: high-fat diet with selenium compounds, plasma adiponectin ELISA; conditions: untreated = 100%, sodium selenite 0.0073% of food
Protocol: as §1, §2, §3

FGF-21 = assay: Experiment 1: high-fat diet with selenium compounds, plasma FGF-21 ELISA; conditions: untreated = 100%, sodium selenite 0.0073% of food
Protocol: as §1, §2, §3

C[Se]CC[C@H](N)C(=O)O [Selenomethionine, selenomethionine]
Inguinal Fat Mass, Females (C57BL/6J mice [1]; high-fat diet): 48% | Perigonadal Fat Mass, Females (C57BL/6J mice [1]; high-fat diet): 55% | Total Body Mass, Females (C57BL/6J mice [1]; high-fat diet): 79% | Inguinal Fat Mass, Males (C57BL/6J mice [1]; male mice, high-fat diet): 54% | Perigonadal Fat Mass, Males (C57BL/6J mice [1]; male mice, high-fat diet): 60% | Total Body Mass, Males (C57BL/6J mice [1]; male mice, high-fat diet): 84% | overall body mass / diet-induced obesity (C57BL/6J mice [1]; male mice, selenomethionine 0.0036% and 0.0073% of food, high-fat diet, vs control-fed littermates): dose-dependent protection against diet-induced obesity | inguinal and perigonadal adipose tissue (C57BL/6J mice [1]; male mice, selenomethionine-supplemented high-fat diet): less inguinal and perigonadal adipose tissue | liver mass (C57BL/6J mice [1]; selenomethionine-supplemented vs control animals, high-fat diet): not significantly different | accumulation of inguinal and perigonadal adipose tissue (FIGS. 9A, 9B) (C57BL/6J mice [2]): robust protection against the accumulation of adipose tissue

O=[Se](O)O [Sodium Selenite, sodium selenite]
Inguinal Fat Mass, Females (C57BL/6J mice [1]; high-fat diet): 19% | Perigonadal Fat Mass, Females (C57BL/6J mice [1]; high-fat diet): 20% | Total Body Mass, Females (C57BL/6J mice [1]; high-fat diet): 66% | Inguinal Fat Mass, Males (C57BL/6J mice [1]; male mice, high-fat diet): 17% | Perigonadal Fat Mass, Males (C57BL/6J mice [1]; male mice, high-fat diet): 20% | Total Body Mass, Males (C57BL/6J mice [1]; male mice, high-fat diet): 60% | Plasma Glucose, Females (plasma glucose; female mice): 69% | Plasma Glucose, Males (plasma glucose; male mice): 71% | Plasma Insulin, Females (insulin; female mice): 25% | Plasma Insulin, Males (insulin; male mice): 19% | Plasma IGF-1, Females (IGF-1; female mice, untreated = 100%): 35% | Plasma IGF-1, Males (IGF-1; male mice, untreated = 100%): 63% | reduction of plasma IGF-1 levels as compared with control values (IGF-1; at the conclusion of experiment 1): 37% | Plasma Leptin, Females (leptin; female mice, high-fat diet, untreated = 100%, sodium selenite 0.0073% of food): 17% | Plasma Leptin, Males (leptin; male mice, high-fat diet, untreated = 100%, sodium selenite 0.0073% of food): 4% | reduction in circulating leptin as compared with controls (leptin; male mice, sodium selenite-supplemented high-fat diet for 16 weeks): 96% | Plasma Adiponectin, Females (adiponectin; female mice): 134% | Plasma Adiponectin, Males (adiponectin; male mice): 128% | Plasma FGF-21, Females (FGF-21; female mice): 3971% | Plasma FGF-21, Males (FGF-21; male mice): 3045%
